Measured values reported in ChEMBL document CHEMBL1123483, “Inhibition of chicken liver dihydrofolate reductase by 5-(substituted benzyl)-2,4-diaminopyrimidines. A quantitative structure-activity relationship and graphics analysis” (J Med Chem, 1986).

Experiment: Partition coefficient (logD) (aqueous phase 0.1 N HCl)
Format: physicochemical
Conditions: 0.1 N HCl (aqueous phase); read-out: logD

Compound | logD
COc1ccc(Cc2cnc(N)nc2N)cc1 | 1.34
Nc1ccc(Cc2cnc(N)nc2N)cc1 | 0.26
COCCOc1cccc(Cc2cnc(N)nc2N)c1 | -1.33
Nc1ncc(Cc2ccc3c(c2)OCO3)c(N)n1 | 1.52
CCCCCCCCOc1cc(Cc2cnc(N)nc2N)ccc1OC | 2.55
C=C(C)c1c(OC)cc(Cc2cnc(N)nc2N)cc1OC | 3.07
CCOc1cc(Cc2cnc(N)nc2N)cc(OCC)c1 | 2.52

Continued, values first:

logD | Compound
1.6 | COc1cc(Cc2cnc(N)nc2N)cc(OC)c1
1.55 | CCc1cc(Cc2cnc(N)nc2N)cc(CC)c1CC
1.51 | COc1cc(Cc2cnc(N)nc2N)cc(OC)c1N(C)C [ADITOPRIM]
2.04 | COc1cc(Cc2cnc(N)nc2N)cc(OC)c1Br [BRODIMOPRIM]
1 | COc1ccc(Cc2cnc(N)nc2N)cc1OC [DIAVERIDINE]
1.6 | COc1cc(Cc2cnc(N)nc2N)cc(OC)c1SC [METIOPRIM]
-1.81 | COCCOc1c(OC)cc(Cc2cnc(N)nc2N)cc1OC [TETROXOPRIM]

Same assay, conditions: octanol/water

logD | Compound
-1.89 | COCCOc1ccc(Cc2cnc(N)nc2N)cc1OCCOC
